Laboratory results from patent US20150065421A1, “BASAL INSULIN THERAPY” (SANOFI, priority 2012, published 2015).

Key:
Format in all cases: in vivo, human
[1] = tested on: people at high risk for vascular disease with either IFG, IGT, or early type 2 diabetes; test: ORIGIN trial: microvascular outcomes
Text: The composite microvascular outcome will be met by the development of any of the following: • Doubling of serum creatinine from study baseline (screening value) • Albuminuria progression, defined as a change from normoalbuminuria to either microalbuminuria or clinical proteinuria, or from microalbuminuria to clinical proteinuria using the definitions in the attached table.
• Requirement for renal replacement therapy (eg, dialysis, renal transplant), or death due to renal failure • Use of retinal photocoagulation or vitrectomy for diabetic retinopathy, including macular edema
There were 2 co-primary composite CV outcomes. The first was CV death, non-fatal MI or non-fatal stroke, and the second was a composite of any of these events or a revascularization procedure or hospitalization for heart failure. Secondary outcomes included a composite microvascular outcome comprising a doubling of serum creatinine from baseline, progression of albuminuria category from normoalbuminuria or microalbuminuria to microalbuminuria or overt nephropathy, renal replacement therapy, renal death, retinal photocoagulation or vitrectomy for retinopathy. They also included new type 2 diabetes developing by the time of the 1st post-trial oral glucose tolerance test in participants without baseline diabetes, and all-cause mortality. Other outcomes included incident cancers, CV hospitalizations, and angina. Cardiovascular and cancer outcomes were reviewed by adjudicators masked to treatment allocation. Episodes of hypoglycaemia since the prior visit were recorded at each visit. Symptomatic hypoglycemia was classified as confirmed if a concomitant recorded capillary glucose level was <3 mmol/L (54 mg/dL). Severe hypoglycemia was defined as hypoglycemia that required assistance plus either prompt recovery with glucose or glucagon or a documented capillary glucose ≦2.0 (36 mg/dL). New diabetes was diagnosed if 2 consecutive FPG levels within a 4-month period were ≧7 mM (126 mg/dL) during the trial; a diagnosis of diabetes was made by a physician and a pharmacologic antidiabetic agent was being taken and there was evidence of either a FPG ≧7 mM (126 mg/dL) or any glucose value ≧11.1 mM (200 mg/dL); either 1 or more capillary glucose levels were ≧11.1 mM (200 mg/dl) and a lab-measured FPG was ≧7 mmol/l (126 mg/dl) or a lab measured random glucose level was ≧11.1 mM (200 mg/dl) during down-titration of glargine insulin; or any FPG was ≧7 mM (126 mg/dl) or 2 hour plasma glucose was ≧11.1 mM (200 mg/dl) during the first oral glucose tolerance test.
The microvascular outcome was a composite of: laser surgery or vitrectomy or blindness for diabetic retinopathy; development of renal death or the need for renal replacement treatment (dialysis or transplantation); doubling of serum creatinine; or progression from lesser to greater severity of microalbuminuria. The last 2 components are laboratory-based—the others are “clinical” microvascular outcomes.

[2] = tested on: people at high risk for vascular disease with either IFG, IGT, or early type 2 diabetes; test: ORIGIN trial: cognition outcomes (Mini-Mental Status Exam)
Text: Defined by serial cognitive testing (e.g., mini-mental status examination [MMSE]).
Overall, there was a strong trend (p=0.075) for glargine treatment to be associated with fewer impaired patients. The data, as summarized in Table 7, reflect the Mini-Mental Status Exam (MMSE) data for the number of participants scoring 24 or less at various timepoints (mild impairment). These patients were examined because they represent those at greater risk of further deterioration during the study, and still with enough patients to confer adequate power to make statistical comparisons. There was a significant reduction of cases of mild impairment from baseline at about 4 years.

[3] = tested on: people at high risk for vascular disease with either IFG, IGT, or early type 2 diabetes; test: ORIGIN trial: blood triglyceride and cholesterol change; details: glargine group
[4] = patients with a history of atrial fibrillation at baseline

(Gly A21) Arg (B31) Arg (B32) human insulin [insulin glargine]
Albumin Prog, N (%) ([1]; glargine group): 1154 | Albumin Prog, Rate ([1]; glargine group): 3.3 | Clin Microvasc, N (%) ([1]; glargine group): 190 | Clin Microvasc, Rate ([1]; glargine group): 0.5 | Double Cr, N (%) ([1]; glargine group): 94 | Double Cr, Rate ([1]; glargine group): 0.25 | Laser/Vitrect, N (%) ([1]; glargine group): 79 | Laser/Vitrect, Rate ([1]; glargine group): 0.22 | Microvascular, N (%) ([1]; glargine group): 1280 | Microvascular, Rate ([1]; glargine group): 3.7 | Renal Failure, N (%) ([1]; glargine group): 36 | Renal Failure, Rate ([1]; glargine group): 0.1 | Laser/Vitrect, HR (95% CI) ([1]; glargine vs standard, P 0.016): 0.59 (0.38, 0.91) | Clin Microvasc, HR (95% CI) ([1]; glargine vs standard, P 0.038): 0.74 (0.56, 0.98) | Microvascular, HR (95% CI) ([1]; glargine vs standard, P 0.066): 0.90 (0.81, 1.01) | Double Cr, HR (95% CI) ([1]; glargine vs standard, P 0.09): 0.70 (0.46, 1.06) | Albumin Prog, HR (95% CI) ([1]; glargine vs standard, P 0.17): 0.92 (0.82, 1.04) | Renal Failure, HR (95% CI) ([1]; glargine vs standard, P 0.46): 1.27 (0.67, 2.39) | microvascular outcomes, difference to standard care ([1]; insulin glargine vs standard care): no statistically significant difference | RR for Clinical Microvascular outcomes (non-laboratory-based) [1, 4]: 0.42 (0.19-0.91) | RR for microvascular outcome [1, 4]: 0.74 (0.55-0.98) | relative risk (RR) for microvascular outcome ([1]; patients with baseline A1c<6.4%, not significant): 1.08 | relative risk (RR) for microvascular outcome ([1]; patients with baseline A1c≧6.4%, statistically significant): 0.88 (0.79-0.98) | participants scoring 24 or less in MMSE (mild impairment), N (%) ([2]; 2 years, P 0.823 vs standard, baseline 483 (7.7)): 433 (7.6) N (%) | participants scoring 24 or less in MMSE (mild impairment), N (%) ([2]; Any measure, P 0.075 vs standard): 605 (10.4) N (%) | participants scoring 24 or less in MMSE (mild impairment), N (%) ([2]; End of study, P 0.358 vs standard): 464 (9.6) N (%) | participants scoring 24 or less in MMSE (mild impairment), N (%) ([2]; ~4 years, P 0.022 vs standard): 449 (9.0) N (%) | change of triglyceride concentration in the blood ([3]; P<0.001 vs standard care): −0.21 (0.03) | Total cholesterol change from baseline to end-of-study ([3]; p 0.044 vs standard care): -0.41 mmol/L
